Measurements: patent US12006530B2, “Streptococcal proteases” (priority 2016, dated 2024)
Entries after “also recorded” stand apart in the source; their conditions may differ. Peptide text beside a SMILES is read from it. * marks the point of attachment. Cbz = O=C(OCc1ccccc1)*; CHN2 = [N-]=[N+]=C*

B1: rIgdE^H333A (protein)
chain: DENSHLQSPKNTNKIEVLNWEAFSKKLKDYSSDQRQFHVLKLGFENRLGTLSTREELEEFGKNNNFLVINGKVTQNIHDFPHILVMNKGDVIAHNEEDYHNQMRELRFSGNGDLHNSMEPKRIHALFKIELDSNKRQLLNAAGLGTAENSLKNINGMTIYSHGLTVDNKYYEDYSKYTHNSVKNINVTKERFIANDDLIHKLIESSEAMKQSSERDKVKAFVQYVANHTTYDWEAANKAVQNYADINYYLGSDLFAVTERQKAMCVGFSTTAARAFNMLGLPAYVVVGKNAEGVPAATARVYYDKKWHTIDGTGFITGNKHQRSAKYSEKHFSTIGEDSYDVVEAGQEPKAERNYMIIDSNYESWAMKQKTADLLLFNKEKSLVGLDYIAYVEPTYITENKKNHLLDIYKALKRKVEETKATDKDDKDDKQEGYDRVLQFVNSDIDKLSALSKITEEEFKALENSMDLARVFLGQMNAKAGKEFSEGETYQSYLKNRQKNNTNSDDDRNRNELQENQANSDEVSQNSKDASAPSVNSAQQSEELEGTPSTQETISAAPSQQTPAAPKALQAKTELEDKTETSSLGNTEMVSPSSETAQNTVDSKEESDAKLPYVEPSSKESSEAQVNTVSSPQVSSASPTSSETISTDTVTASQEKAESRVSAPQVISASQTSPETNSAEVVTTSQEVAKAPVSAPQVSSEIQTLSETAPTEVATEAPELSALESNPAPQTSLETTPTEEVTETPEPSVVESNSASPTSPETNSAEAVTTSQEMAEPSVSVPQVSSEIPTSSETAPAEVATEVSEESSSASQPSPETTPTETVTTSQEVAEAPVSAPQVSSEIPTSPETASTEVVVAKQEVADSPVSAPQVISEIPTSSETAPAEVATEVTEPSVVASSSASPTSPEANSTEVVVAKQEVADPLVSAPQTSSASLTLEVPKNEHLDEKADATTPNGVEANTHEAVSVPTSDIRVQDAGSDTVPQPYSLSATLFEEAISTVEPVGVATSSQERSAVAGKVKVPTSLERSNNSVEEEKVVDSNATIENREPEKKEILTSENVLNSLVTIWVALSTSFFMRYFSRGK

Key:
S. suis IgdE^ΔC = assay: Inhibitor profile of purified recombinant IgdE^ΔC, quantitative IgG degradation analysis; type: biochemical, Streptococcus suis; conditions: porcine IgG
Method: The time course of cleavage (A) was monitored by continuous sampling prior to Coomassie fluor orange stained SDS-PAGE under reducing conditions followed by densitometric quantification of the cleavage product. 1.67 μM porcine IgG was incubated with 0.2 μM purified rIgdE^ac. Overnight cleavage (16 h) was set as 100% relative cleavage. For the inhibitor profile (B) initial cleavage in presence of 250 μM and 2.5 μM of each inhibitor was monitored. Initial cleavage activity of the uninhibited control was set as 100% relative activity. The DMSO control correlates to 250 μM Z-LVG-CHN2. Data are presented as mean±SEM of three experiments. Differences to the uninhibited control (*) or DMSO control (□) were analyzed by Dunnett's Multiple Comparison Test with significance set at P values of <0.05(*), <0.01(**) and <0.001(*** or □□□).
For time course analyses and inhibitor profiles the IgG degradation reaction was performed with 0.25 mg/ml porcine IgG and 2 μM purified IgdE^ΔC at 37° C. in PBS uninhibited or in the presence of 2.5 μM or […] AEBSF (Sigma), EDTA, E-64 (Sigma), lodoacetamide (Sigma), or Z-LVG-CHN2 (Bachem). DMSO (Sigma) at 0.275%, corresponding to the DMSO content in 250 µM Z-LVG-CHN2, was used as a solvent control. The reactions were continuously sampled and subjected to SDS-PAGE under reducing conditions. Protein bands were detected by staining with Coomassie Fluor™ Orange Protein Gel Stain (Invitrogen). The IgG degradation product was densitometrical quantified by imaging with LAS4000 imaging system (Fujifilm) and analyzed with Image Studio Version 3.1 (LI-COR Biosciences) software. Uninhibited over-night cleavage was set as 100% relative cleavage for the time course experiment. For the inhibitor profile the initial cleavage rate was calculated from the initial increase of cleavage product (0-25% relative cleavage) and the initial cleavage rate of the uninhibited reaction was set as 100% relative activity. Experiments were at least performed in triplicates. Statistical analyses were performed using GraphPad Prism Version 5.0.

[1] = test system: IgG degradation activity in culture supernatant of S. suis strain 10; assay: Inhibitor profile of IgG degradation activity in S. suis culture supernatant, anti-IgG Western blot; type: biochemical, Streptococcus suis; conditions: for IgG cleavage product in presence of inhibitor: concentrated (10×) supernatant of strain 10, porcine plasma; for IgG cleaving activity in the presence of class specific protease inhibitors: protease enriched ammonium sulfate precipitates of S. suis culture supernatant, porcine plasma
Method: Concentrated (10×) culture supernatant of S. suis strain 10 was incubated with porcine plasma in presence of class specific protease inhibitors. The reaction was analyzed by anti-IgG western blot under reducing conditions.
To monitor IgG cleavage activity in concentrated and fractionated culture supernatants, samples were incubated with 1% porcine plasma in PBS for 16 h at 37° C. prior to Western blot analyses.
To identify the catalytic type of the IgG protease, the IgG degradation reaction was performed in the presence of 0.1-5 mM AEBSF (Sigma), 0.1-5 mM EDTA, 50-250 μM E-64 (Sigma), 0.1-5 mM Z-LVG-CHN2 (Bachem), 0.1-5 mM Iodoacetamide (Sigma) or 1/200 to 1/50 dilution of complete protease inhibitor cocktail (Roche).
(§1) Samples for SDS-PAGE were prepared with either reducing or non-reducing sample buffer and heated to 95° C. for 5 min. 12% SDS-PAGE was either stained with Coomassie blue (Sigma), Coomassie Fluor™ Orange Protein Gel Stain (Invitrogen) or blotted to Hybond-P PVDF membrane (GE Healthcare) for western blot analyses. Membranes were blocked with 5% dry milk powder in 0.1% PBS-Tween, followed by incubation with horse-radish peroxidase conjugated antibodies. Goat anti-pig IgG-HRP (Thermo Scientific) and goat anti-porcine IgM-HRP (Thermo Scientific) was diluted 1:25′000 and goat anti-porcine IgA-HRP (Thermo Scientific) was diluted 1:12′500. Membranes were thoroughly washed with 0.1% PBS-Tween prior to development with Amersham ECL Select Western blotting detection reagent (GE Healthcare) according to manufactures instruction and pictured by LAS4000 imaging system (Fujifilm).

porcine IgG = assay: IgG cleavage by IgdE, SDS-PAGE; type: biochemical, pig; conditions: 3.3 μM porcine IgG, 16 h at 37° C., soluble fractions of E. coli expressing the construct, reducing SDS-PAGE
Method: (A) Schematic illustration of IgdE and the different rIgdE constructs with potential active site residues substitutions and the C-terminal truncation variant. The secretion signal peptide (residues 1-37) is marked in light grey, the transglutaminase domain is boxed and the potential active site residues and substitutions are indicated. (B) 3.3 μM porcine IgG was incubated for 16 h at 37° C. with soluble fractions of E. coli cells expressing different rIgdE constructs. The reaction was analyzed SDS-PAGE under reducing conditions. […] The weak protein band of 37 kDa is a contaminant present in lysate preparation and not related to IgdE activity.
0.5 mg/ml of porcine IgG (Sigma) in PBS or of other species (human, goat, cow, horse and mouse; all Sigma) were incubated with either crude extracts of induced E. coli carrying S. suis IgdE constructs mentioned above or 10 nM purified rIgdE for 16 h at 37° C. prior subjection to SDS-PAGE under either reducing or non-reducing conditions.
as §1

[2] = purified recombinant IgdE^ΔC, inhibitor at 250 μM and 2.5 μM per FIG. 3
[3] = 125 fold molar excess of inhibitor, 37° C., up to 18 h

| Molecule | IgG proteolytic activity of purified IgdE^ΔC in presence of inhibitor (S. suis IgdE^ΔC; [2]) | IgG cleaving activity in the presence of class specific protease inhibitors [1] | IgG proteolytic activity of purified IgdE^ΔC in presence of inhibitor (S. suis IgdE^ΔC; [3]) | IgG cleavage product in presence of inhibitor ([1]; inhibitor 0.1-5 mM) | further results |
| --- | --- | --- | --- | --- | --- |
| CC(C)C[C@H](NC(=O)[C@H]1O[C@@H]1C(=O)O)C(=O)NCCCCN=C(N)N [E-64] | did not inhibit | appeared to inhibit IgG degrading activity |  |  | IgG cleavage activity of S. suis culture supernatants in presence of inhibitor ([1]; at very high concentrations): interfered with IgG cleavage activity; IgG cleavage product in presence of inhibitor ([1]; inhibitor 50 μM): A cleavage product of IgG can be observed; IgG cleavage product in presence of inhibitor ([1]; inhibitor 250 μM): no degradation product was observed |
| CC(C)CC(NC(=O)OCc1ccccc1)C(=O)NC(C(=O)NCC(=O)C=[N+]=[N-])C(C)C (stereo not drawn) [Z-LVG-CHN2] (Cbz-Leu-Val-Gly-CHN2; configuration not given here) |  | appeared to inhibit IgG degrading activity | no cleavage product at all could be detected; also recorded: completely inhibited | no degradation product was observed |  |
| NC(=O)CI [iodoacetamide] |  | appeared to inhibit IgG degrading activity | no cleavage product at all could be detected | no degradation product was observed |  |
| O=C(O)CN(CCN(CC(=O)O)CC(=O)O)CC(=O)O [EDTA] | fully active | did not affect IgG cleavage |  | A cleavage product of IgG can be observed |  |
| NCCc1ccc(S(=O)(=O)F)cc1 [AEBSF] |  | interfered moderately with IgG cleavage | inhibited the IgdEAC moderately |  | IgG cleavage product in presence of inhibitor ([1]; inhibitor 5 mM): no degradation product was observed; IgG cleavage product in presence of inhibitor ([1]; inhibitor 0.1-1 mM): A cleavage product of IgG can be observed |
| B1 |  |  |  |  | IgG cleavage (32 kDa band) by rIgdE constructs (porcine IgG): neither rIgdE^C302S nor rIgdE^H333A exhibited IgG cleaving activity |
